System: small cell lung cancer cell lines
Experiment: qRT-PCR time- and dosage-dependent expression change of candidate PD markers ASCL1, GRP, NOTCH1 in SCLC cell lines
Assay type: cell-based, human
Protocol: Seven small cell lung cancer cell lines were treated with 0.1 nM, 1 nM and 10 nM (trans)-N1-((1R,2S)-2-phenylcyclopropyl)cyclohexane-1,4-diamine or vehicle 24 hr, 96 hr and 7 days. Lysates were prepared by lysis in RNA lysis buffer containing 1% β-mercaptoethanol. RNA extraction was performed using a Maxwell 16 instrument and a Maxwell 16 LEV simply RNA cells Kit (Promega), according to the manufacturer's instructions. The mRNA expression levels of each cell line after treatment were then measured using qRT-PCR. The RT-qPCR reaction was conducted using a one-step kit (ABI), with a duplexed house-keeping control (Assay ID Hs02800695_m1) using the assays in the table below. The log 2 fold changes for each gene were calculated by comparing with the vehicle controlled samples at 24 hr sampling point.
Table 6 contains the dose-dependent effect on expression changes for candidate PD markers ASCL1 (Assay ID Hs04187546_g1), GRP (Assay ID Hs01107047_m1) and NOTCH1 (Assay ID Hs01062014_m1).

[1] = SHP-77, 0.1 nM, 24 hrs, vs vehicle at 24 hr
[2] = SHP-77, 0.1 nM, 96 hrs, vs vehicle at 24 hr
[3] = SHP-77, 0.1 nM, 168 hrs, vs vehicle at 24 hr
[4] = SHP-77, 1 nM, 24 hrs, vs vehicle at 24 hr
[5] = SHP-77, 1 nM, 96 hrs, vs vehicle at 24 hr
[6] = SHP-77, 1 nM, 168 hrs, vs vehicle at 24 hr
[7] = SHP-77, 10 nM, 24 hrs, vs vehicle at 24 hr
[8] = SHP-77, 10 nM, 96 hrs, vs vehicle at 24 hr
[9] = SHP-77, 10 nM, 168 hrs, vs vehicle at 24 hr

## N[C@H]1CC[C@H](N[C@@H]2C[C@H]2c2ccccc2)CC1 [RG6016, (trans)-N1-((1R,2S)-2-phenylcyclopropyl)cyclohexane-1,4-diamine]
NCI-H510A, 1 nM, 168 hrs
  Log2_FC ASCL1: −0.51
  Log2_FC GRP: −2.34
  Log2_FC NOTCH1: 3.98
NCI-H510A, 10 nM, 24 hrs
  Log2_FC ASCL1: −0.28
  Log2_FC GRP: −0.35
  Log2_FC NOTCH1: 1.60
NCI-H510A, 10 nM, 96 hrs
  Log2_FC ASCL1: −0.55
  Log2_FC GRP: −2.02
  Log2_FC NOTCH1: 2.89
NCI-H510A, 10 nM, 168 hrs
  Log2_FC ASCL1: −0.64
  Log2_FC GRP: −2.53
  Log2_FC NOTCH1: 4.16
NCI-H526, 0.1 nM, 24 hrs, vs vehicle at 24 hr
  Log2_FC NOTCH1: 0.04
NCI-H526, 0.1 nM, 96 hrs, vs vehicle at 24 hr
  Log2_FC NOTCH1: 0.51
NCI-H526, 0.1 nM, 168 hrs, vs vehicle at 24 hr
  Log2_FC NOTCH1: 0.55
NCI-H526, 1 nM, 24 hrs, vs vehicle at 24 hr
  Log2_FC NOTCH1: 0.27
NCI-H526, 1 nM, 96 hrs, vs vehicle at 24 hr
  Log2_FC NOTCH1: 0.53
NCI-H526, 1 nM, 168 hrs, vs vehicle at 24 hr
  Log2_FC NOTCH1: 0.96
NCI-H526, 10 nM, 24 hrs, vs vehicle at 24 hr
  Log2_FC NOTCH1: 0.41
NCI-H526, 10 nM, 96 hrs, vs vehicle at 24 hr
  Log2_FC NOTCH1: 0.70
NCI-H526, 10 nM, 168 hrs, vs vehicle at 24 hr
  Log2_FC NOTCH1: 0.33
NCI-H1417, 0.1 nM, 24 hrs
  Log2_FC ASCL1: −0.19
  Log2_FC GRP: 0.24
  Log2_FC NOTCH1: 0.14
NCI-H1417, 0.1 nM, 96 hrs
  Log2_FC ASCL1: 0.12
  Log2_FC GRP: −0.25
  Log2_FC NOTCH1: 0.98
NCI-H1417, 0.1 nM, 168 hrs
  Log2_FC ASCL1: 0.13
  Log2_FC GRP: −0.51
  Log2_FC NOTCH1: 0.86
NCI-H1417, 1 nM, 24 hrs
  Log2_FC ASCL1: −0.20
  Log2_FC GRP: −0.25
  Log2_FC NOTCH1: 1.40
NCI-H1417, 1 nM, 96 hrs
  Log2_FC ASCL1: −0.27
  Log2_FC GRP: −1.06
  Log2_FC NOTCH1: 3.04
NCI-H1417, 1 nM, 168 hrs
  Log2_FC ASCL1: −0.19
  Log2_FC GRP: −0.68
  Log2_FC NOTCH1: 2.55
NCI-H1417, 10 nM, 24 hrs
  Log2_FC ASCL1: −0.25
  Log2_FC GRP: −0.35
  Log2_FC NOTCH1: 1.86
NCI-H1417, 10 nM, 96 hrs
  Log2_FC ASCL1: −0.54
  Log2_FC GRP: −1.13
  Log2_FC NOTCH1: 3.14
NCI-H1417, 10 nM, 168 hrs
  Log2_FC ASCL1: −0.66
  Log2_FC GRP: −1.14
  Log2_FC NOTCH1: 3.22
NCI-H1876, 0.1 nM, 24 hrs
  Log2_FC ASCL1: 0.16
  Log2_FC GRP: 0.41
  Log2_FC NOTCH1: 0.82
NCI-H1876, 0.1 nM, 96 hrs
  Log2_FC ASCL1: −0.58
  Log2_FC GRP: −1.58
  Log2_FC NOTCH1: −0.76
NCI-H1876, 0.1 nM, 168 hrs
  Log2_FC ASCL1: 0.35
  Log2_FC NOTCH1: −0.59
NCI-H1876, 1 nM, 24 hrs
  Log2_FC ASCL1: 0.04
  Log2_FC GRP: 0.70
  Log2_FC NOTCH1: 2.28
NCI-H1876, 1 nM, 96 hrs
  Log2_FC ASCL1: −0.54
  Log2_FC GRP: −1.96
  Log2_FC NOTCH1: 1.08
NCI-H1876, 1 nM, 168 hrs
  Log2_FC ASCL1: 0.32
  Log2_FC GRP: −0.54
NCI-H1876, 10 nM, 24 hrs
  Log2_FC ASCL1: −0.02
  Log2_FC GRP: 0.38
  Log2_FC NOTCH1: 2.67
NCI-H1876, 10 nM, 96 hrs
  Log2_FC ASCL1: −0.82
  Log2_FC NOTCH1: 2.07
NCI-H1876, 10 nM, 168 hrs
  Log2_FC ASCL1: 0.03
  Log2_FC GRP: −1.38
  Log2_FC NOTCH1: 2.55
NCI-H2171, 0.1 nM, 24 hrs
  Log2_FC ASCL1: −0.14
  Log2_FC GRP: 0.01
  Log2_FC NOTCH1: 0.49
NCI-H2171, 0.1 nM, 96 hrs
  Log2_FC ASCL1: −0.29
  Log2_FC GRP: −1.96
  Log2_FC NOTCH1: 0.95
NCI-H2171, 0.1 nM, 168 hrs
  Log2_FC ASCL1: −0.16
  Log2_FC GRP: −1.11
  Log2_FC NOTCH1: 0.90
NCI-H2171, 1 nM, 24 hrs
  Log2_FC ASCL1: −0.06
  Log2_FC NOTCH1: 0.75
NCI-H2171, 1 nM, 96 hrs
  Log2_FC ASCL1: −0.43
  Log2_FC GRP: −1.17
  Log2_FC NOTCH1: 1.17
NCI-H2171, 1 nM, 168 hrs
  Log2_FC ASCL1: −0.02
  Log2_FC GRP: −1.56
  Log2_FC NOTCH1: 1.41
NCI-H2171, 10 nM, 24 hrs
  Log2_FC ASCL1: −0.16
  Log2_FC GRP: −0.37
  Log2_FC NOTCH1: 0.82
NCI-H2171, 10 nM, 96 hrs
  Log2_FC ASCL1: −0.27
  Log2_FC GRP: −0.46
  Log2_FC NOTCH1: 1.22
NCI-H2171, 10 nM, 168 hrs
  Log2_FC ASCL1: −0.11
  Log2_FC GRP: −0.87
  Log2_FC NOTCH1: 1.63
[1]
  Log2_FC ASCL1: −0.11
  Log2_FC GRP: 0.17
[2]
  Log2_FC ASCL1: 0.11
  Log2_FC GRP: 0.74
[3]
  Log2_FC ASCL1: −0.36
  Log2_FC GRP: 0.43
[4]
  Log2_FC ASCL1: 0.52
  Log2_FC GRP: 1.20
[5]
  Log2_FC ASCL1: 0.38
  Log2_FC GRP: 0.83
[6]
  Log2_FC ASCL1: −0.33
  Log2_FC GRP: 0.16
[7]
  Log2_FC ASCL1: −0.07
  Log2_FC GRP: −0.10
[8]
  Log2_FC ASCL1: 0.22
  Log2_FC GRP: 0.56
[9]
  Log2_FC ASCL1: −0.50
  Log2_FC GRP: −0.06

— patent US20190256929A1, “PHARMACODYNAMIC BIOMARKERS FOR PERSONALIZED CANCER CARE USING EPIGENETIC MODIFYING AGENTS” (ORYZON GENOMICS, S.A., priority 2016, published 2019)
